Test results reported in patent publication US11530244B2, “Cyclic polypeptides for PCSK9 inhibition” (priority 2018, dated 2022).
Starred links: 1 amine or outer side, 2 acyl side, 3 side chain; linkers in the order of their positions; H or OH if unused. Positions of bridges follow the written chain, without caps; N, C: chain ends. Non-standard residues stand in square brackets, D forms with d. Residues, ends and D or L forms follow the SMILES beside them. Groups on a side chain read outwards from the residue. *: point of attachment. Phe(3-CH2NH2) = O=C([C@H](Cc1cccc(CN[*:3])c1)N[*:1])[*:2]; PEG12 = NCCOCCOCCOCCOCCOCCOCCOCCOCCOCCOCCOCCOCCC(=O)O; X1 = O=C1CC[C@@H](C(=O)[*:1])N1CCCSCc1cccc(C[*:2])c1; Trp(5-F) = N[C@@H](Cc1c[nH]c2ccc(F)cc12)C(=O)O; X49 = NCCCC[C@H](N[*:1])c1nc(C(=O)[*:2])co1; mXylylene(5-F) = Fc1cc(C[*:1])cc(C[*:2])c1; γGlu = O=C(O)[C@H](CCC(=O)[*:2])N[*:1]; mXylylene = c1cc(C[*:1])cc(C[*:2])c1; X48 = CC(N[*:1])c1ncc(C(=O)[*:2])s1; Palmitoyl = CCCCCCCCCCCCCCCC(=O)*; PEG4 = NCCOCCOCCOCCOCCC(=O)O; αMeP = C[C@@]1(C(=O)O)CCCN1; X51 = COCCOCCOCCOCCC(=O)*; Aun = NCCCCCCCCCCC(=O)O; AEEA = NCCOCCOCC(=O)O; Mpa = O=C(O)CCS

Legend:
Assay type in all cases: binding
PCSK9 [1] = target: T1, PCSK9 (Homo sapiens (Human), UniProt Q8NBP7); experiment: PCSK9 Alexa FRET Standard assay (displacement of AlexaFluor647 tagged cyclic peptide Reagent A); details: PCSK9 Alexa FRET Standard assay, 0.5 nM PCSK9, 20 nM AF cyclic peptide Reagent A; read-out: IC50
Outline: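 TR-FRET displacement: 0.5 nM biotinylated PCSK9 with 1.25 nM Strep-Eu and 20 nM AlexaFluor-tagged cyclic peptide (final) in 50 mM HEPES pH 7.4, 0.15 M NaCl, 5 mM CaCl2, 0.01% BSA, 0.01% P20, ≥2 h at room temperature. IC50 from sigmoidal fit, converted to Ki via peptide KD; falling Eu counts flagged false positives.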

PCSK9 [2] = target: T1, PCSK9; experiment: PCSK9 Alexa FRET Plus assay (displacement of AlexaFluor647 tagged cyclic peptide Reagent B); details: Alexa FRET Plus, 0.5 nM PCSK9, 960 nM AF cyclic peptide Reagent B; read-out: IC50
Outline: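 TR-FRET displacement with final 0.5 nM biotinylated PCSK9, 1.25 nM Strep-Eu and 960 nM AlexaFluor-tagged cyclic peptide in HEPES pH 7.4, NaCl, CaCl2, BSA, P20; ≥2 h at room temperature. IC50 from sigmoidal fit, converted to Ki using peptide KD. Falling europium counts flagged false positives.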

[3] = target: human PCSK9 / human LDLR EGFa domain interaction (Homo sapiens (Human), UniProt Q8NBP7); experiment: TR-FRET assay of inhibition of the PCSK9-LDLR protein-protein interaction; details: TR-FRET, 20 nM human PCSK9, 20 nM human LDLR EGFa domain, 2 hours room temperature; read-out: IC50
Outline: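 Half-maximal inhibitory concentrations came from 4-parameter fits of dose-response data. Proteins: biotinylated PCSK9, His-tagged LDLR EGFa, 20 nM each; labels 5 nM; 2 h, room temperature; buffer 50 mM HEPES, 150 mM NaCl, 5 mM CaCl2.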

T1 sequence (Q8NBP7 153-692): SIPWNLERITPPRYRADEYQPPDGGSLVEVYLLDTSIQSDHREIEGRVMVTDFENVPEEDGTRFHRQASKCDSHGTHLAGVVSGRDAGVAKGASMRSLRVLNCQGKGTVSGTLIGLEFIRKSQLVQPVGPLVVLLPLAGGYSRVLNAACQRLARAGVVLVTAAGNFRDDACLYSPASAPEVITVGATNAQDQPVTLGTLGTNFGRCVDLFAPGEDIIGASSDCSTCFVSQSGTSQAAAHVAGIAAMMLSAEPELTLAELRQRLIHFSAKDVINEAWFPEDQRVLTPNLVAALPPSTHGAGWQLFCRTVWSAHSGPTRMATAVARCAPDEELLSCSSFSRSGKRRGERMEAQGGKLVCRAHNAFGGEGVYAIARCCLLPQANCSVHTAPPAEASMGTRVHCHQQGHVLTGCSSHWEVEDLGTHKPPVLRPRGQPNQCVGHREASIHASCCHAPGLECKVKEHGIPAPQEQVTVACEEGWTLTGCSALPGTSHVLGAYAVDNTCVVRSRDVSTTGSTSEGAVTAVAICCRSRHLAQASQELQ
human PCSK9 / human LDLR EGFa domain interaction, sequence (Q8NBP7 153-692): as above
human PCSK9 / human LDLR EGFa domain interaction, sequence (Q8NBP7 31-152 partner): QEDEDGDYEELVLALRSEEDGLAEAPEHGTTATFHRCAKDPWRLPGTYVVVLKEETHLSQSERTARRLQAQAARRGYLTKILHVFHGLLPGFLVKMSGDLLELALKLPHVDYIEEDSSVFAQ

| SMILES | IC50 (PCSK9 [1]) | IC50 (PCSK9 [2]) | IC50 [3] |
| --- | --- | --- | --- |
| CC(C)C[C@@H]1NC(=O)[C@@H]2CCCN2C(=O)[C@H](Cc2c[nH]c3ccc(F)cc23)NC(=O)[C@H](Cc2c[nH]c3ccc(F)cc23)NC(=O)CNC(=O)[C@H](CCCCN)NC(=O)CCSCc2cccc(c2)CSC[C@@H](C(N)=O)NC(=O)[C@]2(C)CCCN2C(=O)[C@H](Cc2ccc(O)cc2)NC1=O [Compound 004] ([Mpa]KG[Trp(5-F)][Trp(5-F)]PLY[αMeP]C-NH2; linker 1-10 via mXylylene) | 0.00011 to 0.1 µM | 0.1 to 0.5 µM | 0.0001 to 0.1 µM |
| CC[C@H](C)[C@@H]1NC(=O)[C@@H]2CCCN2C(=O)[C@H](Cc2c[nH]c3ccc(F)cc23)NC(=O)[C@H](Cc2c[nH]c3ccc(F)cc23)NC(=O)[C@@H](C)NC(=O)[C@H](CCCCN)NC(=O)CCSCc2cccc(c2)CSC[C@@H](C(N)=O)NC(=O)[C@]2(C)CCCN2C(=O)[C@H](Cc2ccc(OC)cc2)NC1=O [Compound 007] ([Mpa]K[dA][Trp(5-F)][Trp(5-F)]PIY(Me)[αMeP]C-NH2; linker 1-10 via mXylylene) | 0.1 to 1 µM | 0.5 to 5 µM | 0.0001 to 0.1 µM |
| COc1ccc(C[C@@H]2NC(=O)[C@H](C(C)C)NC(=O)[C@@H]3CCCN3C(=O)[C@H](Cc3c[nH]c4ccc(F)cc34)NC(=O)[C@H](Cc3c[nH]c4ccc(F)cc34)NC(=O)[C@@H](C)NC(=O)[C@H](CCCCN)NC(=O)CCSCc3cc(F)cc(c3)CSC[C@@H](C(N)=O)NC(=O)[C@]3(C)CCCN3C2=O)cc1 [Compound 010] ([Mpa]K[dA][Trp(5-F)][Trp(5-F)]PVY(Me)[αMeP]C-NH2; linker 1-10 via mXylylene(5-F)) | 0.1 to 1 µM | 0.5 to 5 µM | 0.0001 to 0.1 µM |
| CCCCCCCCCCCCCCCC(=O)N[C@@H](CCC(=O)NCCOCCOCCC(=O)NCCOCCOCC(=O)NCCCC[C@H](NC(=O)COCCOCCOCCOCCOCCOCCOCCOCCOCCOCCOCCOCCNC(=O)[C@@H]1CSCc2cccc(c2)CSCCC(=O)N[C@@H](CCCCN)C(=O)N[C@H](C)C(=O)N[C@@H](Cc2c[nH]c3ccc(F)cc23)C(=O)N[C@@H](Cc2c[nH]c3ccc(F)cc23)C(=O)N[C@@H](CC(=O)O)C(=O)N[C@@H](Cc2cnc[nH]2)C(=O)N[C@@H](Cc2ccc(O)cc2)C(=O)N2CCC[C@@]2(C)C(=O)N1)C(N)=O)C(=O)O [Compound 474] | 1 to 12.1 µM | 0.5 to 5 µM | – |
| C[C@@]12CCCN1C(=O)[C@H](Cc1ccc(O)cc1)NC(=O)[C@H]1CS[C@H]3CC[C@H](NC(=O)[C@H](Cc4c[nH]c5ccc(F)cc45)NC(=O)[C@H](Cc4c[nH]c5ccc(F)cc45)NC(=O)CNC(=O)[C@H](CCCCN)NC(=O)CCSCc4cccc(c4)CSC[C@@H](C(N)=O)NC2=O)C(=O)N31 [Compound 475] | 21 to 50 µM | 0.5 to 5 µM | – |
| CCCCCCCCCCCCCCCC(=O)N[C@@H](CCC(=O)NCCOCCOCC(=O)NCCOCCOCC(=O)NCc1cccc(C[C@@H]2NC(=O)[C@@H](C)NC(=O)[C@H](CCCCN)NC(=O)CCSCc3cccc(c3)CSC[C@@H](C(N)=O)NC(=O)[C@]3(C)CCCN3C(=O)[C@H](Cc3ccc(O)cc3)NC(=O)[C@H](Cc3cnc[nH]3)NC(=O)[C@H](CC(=O)O)NC(=O)[C@H](Cc3c[nH]c4ccc(F)cc34)NC2=O)c1)C(=O)O [Compound 476] ([Mpa]K[dA][Phe(3-CH2NH2)]([AEEA-AEEA-γGlu-Palmitoyl])[Trp(5-F)]DHY[αMeP]C-NH2; linker 1-10 via mXylylene) | 0.00011 to 0.1 µM | 0.1 to 0.5 µM | – |
| C[C@@]12CCCN1C(=O)[C@H](Cc1ccc(O)cc1)NC(=O)[C@H](Cc1c[nH]cn1)NC(=O)[C@H](CC(=O)O)NC(=O)[C@H](Cc1c[nH]c3ccc(F)cc13)NC(=O)[C@H](Cc1c[nH]c3ccc(F)cc13)NC(=O)c1coc(n1)[C@H](CCCCN)NC(=O)CCSCc1cccc(c1)CSC[C@@H](C(N)=O)NC2=O [Compound 477] ([Mpa][X49][Trp(5-F)][Trp(5-F)]DHY[αMeP]C-NH2; linker 1-9 via mXylylene) | 1 to 12.1 µM | 0.5 to 5 µM | – |
| CCCCCCCCCCCCCCCC(=O)N[C@@H](CCC(=O)NCCOCCOCCOCCOCCOCCOCCOCCOCCOCCOCCOCCOCCC(=O)NCc1cccc(C[C@@H]2NC(=O)[C@@H](C)NC(=O)[C@H](CCCCN)NC(=O)CCSCc3cccc(c3)CSC[C@@H](C(N)=O)NC(=O)[C@]3(C)CCCN3C(=O)[C@H](Cc3ccc(O)cc3)NC(=O)[C@H](Cc3cnc[nH]3)NC(=O)[C@H](CC(=O)O)NC(=O)[C@H](Cc3c[nH]c4ccc(F)cc34)NC2=O)c1)C(=O)O [Compound 478] ([Mpa]K[dA][Phe(3-CH2NH2)]([PEG12-γGlu-Palmitoyl])[Trp(5-F)]DHY[αMeP]C-NH2; linker 1-10 via mXylylene) | 21 to 50 µM | 0.5 to 5 µM | – |
| CCCCCCCCCCCCCCCC(=O)N[C@@H](CCC(=O)NCCOCCOCC(=O)NCCOCCOCC(=O)NCCCC[C@H](NC(=O)CCCCCCCCCCNC(=O)[C@@H]1CSCc2cccc(c2)CSCCC(=O)N[C@@H](CCCCN)C(=O)N[C@H](C)C(=O)N[C@@H](Cc2c[nH]c3ccc(F)cc23)C(=O)N[C@@H](Cc2c[nH]c3ccc(F)cc23)C(=O)N[C@@H](CC(=O)O)C(=O)N[C@@H](Cc2cnc[nH]2)C(=O)N[C@@H](Cc2ccc(O)cc2)C(=O)N2CCC[C@@]2(C)C(=O)N1)C(N)=O)C(=O)O [Compound 479] ([Mpa]K[dA][Trp(5-F)][Trp(5-F)]DHY[αMeP]C[Aun]K([AEEA-AEEA-γGlu-Palmitoyl])-NH2; linker 1-10 via mXylylene) | 0.00011 to 0.1 µM | 0.5 to 5 µM | – |
| CC1NC(=O)[C@H](Cc2c[nH]c3ccc(F)cc23)NC(=O)[C@H](Cc2c[nH]c3ccc(F)cc23)NC(=O)[C@@H](C)NC(=O)[C@H](CCCCN)NC(=O)CCSCc2cccc(c2)CSC[C@@H](C(N)=O)NC(=O)[C@]2(C)CCCN2C(=O)[C@H](Cc2ccc(O)cc2)NC(=O)C2=CN=C1S2 (some centres unmarked) [Compound 480] ([Mpa]K[dA][Trp(5-F)][Trp(5-F)][X48]Y[αMeP]C-NH2; linker 1-9 via mXylylene) | 0.1 to 1 µM | 0.5 to 5 µM | – |
| C[C@@]12CCCN1C(=O)[C@H](Cc1ccc(O)cc1)NC(=O)[C@H](Cc1c[nH]cn1)NC(=O)[C@H](CC(=O)O)NC(=O)[C@H](Cc1c[nH]c3ccc(F)cc13)NC(=O)[C@H](Cc1c[nH]c3ccc(F)cc13)NC(=O)CNC(=O)[C@@H]1CCC(=O)N1CCCSCc1cccc(c1)CSC[C@@H](C(N)=O)NC2=O [Compound 481] (G[Trp(5-F)][Trp(5-F)]DHY[αMeP]C-NH2; linker N-8 via X1) | 1 to 12.1 µM | 0.5 to 5 µM | – |
| C[C@@]12CCCN1C(=O)[C@H](Cc1ccc(O)cc1)NC(=O)[C@H](Cc1c[nH]cn1)NC(=O)[C@H](CC(=O)O)NC(=O)[C@H](Cc1c[nH]c3ccc(F)cc13)NC(=O)[C@H](Cc1c[nH]c3ccc(F)cc13)NC(=O)CNC(=O)[C@@H]1CCC(=O)N1CCCSCc1cccc(c1)CSC[C@@H](C(N)=O)NC2=O [Compound 482] (G[Trp(5-F)][Trp(5-F)]DHY[αMeP]C-NH2; linker N-8 via X1) | 0.00011 to 0.1 µM | 0.1 to 0.5 µM | – |
| COCCOCCOCCOCCC(=O)NCCCC[C@@H]1NC(=O)CCSCc2cccc(c2)CSC[C@@H](C(N)=O)NC(=O)[C@]2(C)CCCN2C(=O)[C@H](Cc2ccc(O)cc2)NC(=O)[C@H](Cc2cnc[nH]2)NC(=O)[C@H](CC(=O)O)NC(=O)[C@H](Cc2c[nH]c3ccc(F)cc23)NC(=O)[C@H](Cc2c[nH]c3ccc(F)cc23)NC(=O)CNC1=O [Compound 484] ([Mpa]K(X51)G[Trp(5-F)][Trp(5-F)]DHY[αMeP]C-NH2; linker 1-10 via mXylylene) | 0.00011 to 0.1 µM | 0.0001 to 0.1 µM | – |
| C[C@@]12CCCN1C(=O)[C@H](Cc1ccc(O)cc1)NC(=O)[C@H](Cc1cnc[nH]1)NC(=O)[C@H](CC(=O)O)NC(=O)[C@H](Cc1c[nH]c3ccc(F)cc13)NC(=O)[C@H](Cc1c[nH]c3ccc(F)cc13)NC(=O)CNC(=O)[C@H](CCCCNC(=O)CCOCCOCCOCCOCCN)NC(=O)CCSCc1cccc(c1)CSC[C@@H](C(N)=O)NC2=O [Compound 485] ([Mpa]K(PEG4)G[Trp(5-F)][Trp(5-F)]DHY[αMeP]C-NH2; linker 1-10 via mXylylene) | 0.00011 to 0.1 µM | 0.0001 to 0.1 µM | – |
| COc1ccc(C[C@@H]2NC(=O)[C@@H]3CCCC/C=C\CC[C@@]4(CCCN4C2=O)C(=O)NCCSCc2cccc(c2)CSCCC(=O)N[C@@H](C)C(=O)N[C@H](C)C(=O)N[C@H]2Cc4cccc(c4)CNC(=O)CC[C@@H](C(=O)N3)N3C(=O)[C@@H](NC2=O)C3c2c[nH]c3ccc(F)cc23)cc1 (some centres unmarked) [Compound 524] | 0.1 to 1 µM | 0.5 to 5 µM | – |
| COc1ccc(C[C@@H]2NC(=O)[C@H]([C@H](C)O)NC(=O)[C@@H]3CCCc4cn(nn4)CC[C@H](NC(=O)[C@@H](C)NC(=O)[C@H](C)NC(=O)CCSCc4cccc(c4)CSCCNC(=O)[C@]4(C)CCCN4C2=O)C(=O)N[C@@H](Cc2c[nH]c4ccc(F)cc24)C(=O)N3)cc1 [Compound 525] | 0.1 to 1 µM | 0.5 to 5 µM | – |
